This is an account of results in patent publication US10669269B2, “Substituted N-(1H-indazol-4-yl)imidazo[1,2-a]pyridine-3-carboxamide compounds as type III receptor tyrosine kinase inhibitors” (ARRAY BIOPHARMA INC., priority 2010, dated 2020).

For one assay, the target named is T1, cFMS (Homo sapiens, UniProt P07333).
T1 construct: THP-1 cells (human acute monocytic leukemia cell line) were serum-starved for 4 hours; endogenous in cells; host or cells: THP-1 cells (human acute monocytic leukemia cell line)
The assay is described as follows: cFMS Cell-Based Assay (Example C). The settings on record: averaged IC50; phospho-cFMS in THP-1 cells stimulated with 250 ng/mL recombinant human MCSF; read-out: cFMS Cell ELISA IC50. In outline: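 THP-1 cells serum-starved 4 h, then treated 1 h with compound (9-point, 3-fold series, top dose typically 5,000 nM) at 37 °C, then stimulated 1 min with 250 ng/mL recombinant human MCSF. Phospho-cFMS in lysates quantified by capture ELISA against a purified phospho-protein standard curve. IC50 at 50 percent of control, 4-parameter logistic fit.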
(In general: In an ELISA, binding on a coated surface is turned into a signal by an enzyme label.)

The next assay deals with T2, c-KIT (Homo sapiens, UniProt P10721).
T2 construct: M-07e cells (human acute megakaryoblastic leukemia cell line) were serum-starved for 4 hours; endogenous in cells; host or cells: M-07e cells (human acute megakaryoblastic leukemia cell line)
Nature of the assay: c-KIT Cell-Based Assay (Example D). The note with it: averaged IC50; phospho-c-KIT in M-07e cells stimulated with 150 ng/ml recombinant human SCF; read-out: cKIT Cell ELISA IC50. An outline of the steps:
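M-07e cells serum-starved 4 h, treated 1 h with compound (9-point, 3-fold dilutions, top dose typically 5,000 nM) at 37° C, then stimulated 4 min with 150 ng/ml SCF. Phospho-c-KIT in lysates quantified by ELISA against a standard curve; IC50 from 4-parameter logistic fit as 50% of control.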

The target of the next assay is T3, PDGFR beta (Homo sapiens, UniProt P09619).
T3 construct: endogenous in cells; host or cells: HS27 human fibroblast cell line
Nature of the assay: Phospho PDGFR LICOR Cell Assay (Example B). The format is cell-based. The note with it: averaged IC50; PDGFR beta phosphorylation in HS27 human fibroblast cell line, PDGF-BB stimulation 10 minutes, normalized to total ERK. An outline of the steps: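 HS27 human fibroblasts pretreated 1 h with compound, then stimulated 10 min with PDGF-BB. Fixed, permeabilized cells immunostained for phospho-PDGFRβ and total ERK and read by two-colour infrared fluorescence, with phospho signal normalized to ERK. IC50 = 50% of control from 4-parameter logistic fit.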

Where a name gives a salt, the structure may show the parent alone.

T2 sequence (P10721 26-976): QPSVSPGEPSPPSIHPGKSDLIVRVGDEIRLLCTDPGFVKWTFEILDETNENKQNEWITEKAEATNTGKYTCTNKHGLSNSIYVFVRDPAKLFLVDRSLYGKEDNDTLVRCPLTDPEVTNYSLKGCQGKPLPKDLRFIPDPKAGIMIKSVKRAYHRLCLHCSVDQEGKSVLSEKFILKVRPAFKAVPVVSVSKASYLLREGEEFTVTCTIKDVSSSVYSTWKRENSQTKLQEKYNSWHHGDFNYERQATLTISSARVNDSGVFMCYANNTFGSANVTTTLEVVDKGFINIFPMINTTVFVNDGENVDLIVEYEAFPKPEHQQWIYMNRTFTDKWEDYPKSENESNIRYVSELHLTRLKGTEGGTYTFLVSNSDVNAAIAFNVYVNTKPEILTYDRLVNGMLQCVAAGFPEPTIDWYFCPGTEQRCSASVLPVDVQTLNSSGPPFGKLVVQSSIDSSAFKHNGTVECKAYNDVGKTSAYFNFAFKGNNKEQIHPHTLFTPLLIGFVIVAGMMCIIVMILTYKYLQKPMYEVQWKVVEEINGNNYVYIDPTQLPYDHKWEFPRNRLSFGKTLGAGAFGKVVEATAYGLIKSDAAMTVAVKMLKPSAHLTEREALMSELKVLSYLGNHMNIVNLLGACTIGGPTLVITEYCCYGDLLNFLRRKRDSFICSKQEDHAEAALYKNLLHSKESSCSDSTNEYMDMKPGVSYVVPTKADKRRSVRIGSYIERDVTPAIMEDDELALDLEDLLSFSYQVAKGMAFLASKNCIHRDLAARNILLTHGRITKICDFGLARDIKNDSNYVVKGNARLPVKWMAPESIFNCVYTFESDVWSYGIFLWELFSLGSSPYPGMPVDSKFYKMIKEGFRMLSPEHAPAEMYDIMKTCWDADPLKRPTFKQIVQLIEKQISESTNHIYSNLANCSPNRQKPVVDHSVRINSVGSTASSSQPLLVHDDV
T3 sequence (P09619 33-1106): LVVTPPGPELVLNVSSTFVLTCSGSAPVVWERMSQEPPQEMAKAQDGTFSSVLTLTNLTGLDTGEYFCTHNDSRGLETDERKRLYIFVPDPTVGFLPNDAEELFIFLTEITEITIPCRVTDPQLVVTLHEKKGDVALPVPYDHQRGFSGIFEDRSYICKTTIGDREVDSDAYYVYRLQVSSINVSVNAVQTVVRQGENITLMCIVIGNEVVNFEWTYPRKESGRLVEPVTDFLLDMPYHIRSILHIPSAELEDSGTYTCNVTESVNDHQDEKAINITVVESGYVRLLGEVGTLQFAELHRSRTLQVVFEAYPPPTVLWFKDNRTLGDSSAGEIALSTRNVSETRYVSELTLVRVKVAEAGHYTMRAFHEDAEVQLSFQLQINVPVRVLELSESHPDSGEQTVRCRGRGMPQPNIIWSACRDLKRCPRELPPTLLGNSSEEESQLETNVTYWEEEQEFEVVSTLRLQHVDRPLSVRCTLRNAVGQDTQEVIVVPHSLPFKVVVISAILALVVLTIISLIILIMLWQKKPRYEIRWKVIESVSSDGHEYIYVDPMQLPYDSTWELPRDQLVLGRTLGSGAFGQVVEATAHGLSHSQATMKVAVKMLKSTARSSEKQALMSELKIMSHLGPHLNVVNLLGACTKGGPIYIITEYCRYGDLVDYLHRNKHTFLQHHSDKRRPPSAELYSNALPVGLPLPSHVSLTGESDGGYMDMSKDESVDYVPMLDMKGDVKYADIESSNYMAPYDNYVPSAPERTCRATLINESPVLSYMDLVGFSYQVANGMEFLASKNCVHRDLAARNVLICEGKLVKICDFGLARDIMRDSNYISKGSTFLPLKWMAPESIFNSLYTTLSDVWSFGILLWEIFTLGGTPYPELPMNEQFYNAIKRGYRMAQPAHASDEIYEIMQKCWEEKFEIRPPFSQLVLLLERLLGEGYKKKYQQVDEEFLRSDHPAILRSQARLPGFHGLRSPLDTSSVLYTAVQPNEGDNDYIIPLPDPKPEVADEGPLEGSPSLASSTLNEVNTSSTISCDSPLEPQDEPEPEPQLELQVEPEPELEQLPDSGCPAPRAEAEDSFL
T1 sequence (P07333 20-972): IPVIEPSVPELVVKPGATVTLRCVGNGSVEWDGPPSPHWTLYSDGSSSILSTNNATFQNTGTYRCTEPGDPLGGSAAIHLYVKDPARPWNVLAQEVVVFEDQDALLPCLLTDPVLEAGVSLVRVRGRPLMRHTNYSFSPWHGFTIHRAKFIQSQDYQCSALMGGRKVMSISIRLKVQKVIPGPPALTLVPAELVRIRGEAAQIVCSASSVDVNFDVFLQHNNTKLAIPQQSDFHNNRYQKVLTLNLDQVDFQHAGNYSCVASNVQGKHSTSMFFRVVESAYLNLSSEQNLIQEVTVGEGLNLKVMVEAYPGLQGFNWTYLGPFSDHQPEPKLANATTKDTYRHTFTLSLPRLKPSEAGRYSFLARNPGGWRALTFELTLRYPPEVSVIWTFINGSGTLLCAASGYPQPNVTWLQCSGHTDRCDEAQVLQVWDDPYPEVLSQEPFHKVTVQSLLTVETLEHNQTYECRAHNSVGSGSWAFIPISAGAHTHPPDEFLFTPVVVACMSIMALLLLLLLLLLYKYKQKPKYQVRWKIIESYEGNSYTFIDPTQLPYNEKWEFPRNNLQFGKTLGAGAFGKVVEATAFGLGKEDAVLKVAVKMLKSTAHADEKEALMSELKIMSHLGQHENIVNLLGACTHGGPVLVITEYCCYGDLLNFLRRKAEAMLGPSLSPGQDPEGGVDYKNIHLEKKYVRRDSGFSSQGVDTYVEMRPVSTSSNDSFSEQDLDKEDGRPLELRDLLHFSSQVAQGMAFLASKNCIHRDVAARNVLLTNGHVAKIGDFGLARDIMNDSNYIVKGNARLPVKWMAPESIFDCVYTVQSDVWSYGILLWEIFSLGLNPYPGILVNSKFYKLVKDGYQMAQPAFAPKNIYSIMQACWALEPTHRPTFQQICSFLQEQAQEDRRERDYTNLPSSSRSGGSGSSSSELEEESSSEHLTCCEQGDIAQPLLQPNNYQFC

A word on the IC50: it is the concentration needed to halve the response being measured. Turning to `COCCOc1ccn2c(C(=O)Nc3cccc4c3cnn4CC3CC3)cnc2c1` [Example 110, N-(1-(cyclopropylmethyl)-1H-indazol-4-yl)-7-(2-methoxyethoxy)imidazo[1,2-a]pyridine-3-carboxamide], the IC50 stood at 380 nM on cFMS, 168 nM at c-KIT and 1000 nM against PDGFR beta.
For `Cc1cccc(Cn2ncc3c(NC(=O)c4cnc5cc(OCCN6CCN(C)CC6)ccn45)cccc32)n1` [Example 150, 7-(2-(4-methylpiperazin-1-yl)ethoxy)-N-(1-((6-methylpyridin-2-yl)methyl)-1H-indazol-4-yl)imidazo[1,2-a]pyridine-3-carboxamide] the same measures were 4.6 nM, 14.4 nM and 1.7 nM.
For `CN1CCN(CCOc2ccn3c(C(=O)Nc4cccc5c4cnn5Cc4cccc(C(=O)N(C)C)c4)cnc3c2)CC1` [Example 97, N-(1-(3-(dimethylcarbamoyl)benzyl)-1H-indazol-4-yl)-7-(2-(4-methylpiperazin-1-yl)ethoxy)imidazo[1,2-a]pyridine-3-carboxamide dihydrochloride] the same measures were 10.4 nM, 25.7 nM and 9.6 nM.
Consider `COCCOc1ccn2c(C(=O)Nc3cccc4c3cnn4Cc3cccc(OC)c3)cnc2c1` [Example 140, N-(1-(3-methoxybenzyl)-1H-indazol-4-yl)-7-(2-methoxyethoxy)imidazo[1,2-a]pyridine-3-carboxamide], for which the values for the half-maximal inhibitory concentration (IC50) at cFMS, on c-KIT and against PDGFR beta were 3.1 nM, 4.8 nM and 2.5 nM, respectively.
On the same counts, the results for `COc1cccc(Cn2nc(C)c3c(NC(=O)c4cnc5cc(OCCN6CCN(C)CC6)ccn45)cccc32)n1` [Example 87, N-(1-((6-methoxypyridin-2-yl)methyl)-3-methyl-1H-indazol-4-yl)-7-(2-(4-methylpiperazin-1-yl)ethoxy)imidazo[1,2-a]pyridine-3-carboxamide] are 4.9 nM, 372 nM and 77.7 nM.
Consider `Cc1nn(Cc2cc(C)n(C(C)C)n2)c2cccc(NC(=O)c3cnc4cc(OCCN5CCN(C(C)C)CC5)ccn34)c12` [Example 10, N-(1-((1-Isopropyl-5-methyl-1H-pyrazol-3-yl)methyl)-3-methyl-1H-indazol-4-yl)-7-(2-(4-isopropylpiperazin-1-yl)ethoxy)imidazo[1,2-a]pyridine-3-carboxamide], for which the concentration for half-maximal inhibition (IC50) is 25.3 nM at cFMS, 141 nM on c-KIT and 40.8 nM at PDGFR beta.
On the same counts, the results for `CN1CCN(CCOc2ccn3c(C(=O)Nc4cccc5c4cnn5Cc4cccc(C(F)(F)F)c4)cnc3c2)CC1` [Example 98, 7-(2-(4-methylpiperazin-1-yl)ethoxy)-N-(1-(3-(trifluoromethyl)benzyl)-1H-indazol-4-yl)imidazo[1,2-a]pyridine-3-carboxamide dihydrochloride] are 26.3 nM, 4.9 nM and 5.7 nM.
On to `CCOc1ccn2c(C(=O)Nc3cccc4c3cnn4Cc3ccccc3)cnc2c1` [Example 127, N-(1-benzyl-1H-indazol-4-yl)-7-ethoxyimidazo[1,2-a]pyridine-3-carboxamide], for which the IC50 at cFMS was 14.9 nM; at c-KIT, 67.8 nM; at PDGFR beta, 1.7 nM.
On the same counts, the results for `COCCOc1ccn2c(C(=O)Nc3cccc4c3cnn4Cc3cccc(C)n3)cnc2c1` [Example 142, 7-(2-methoxyethoxy)-N-(1-((6-methylpyridin-2-yl)methyl)-1H-indazol-4-yl)imidazo[1,2-a]pyridine-3-carboxamide] are 6.9 nM, 6.1 nM and 14.2 nM.
In the case of `COCCOc1ccn2c(C(=O)Nc3cccc4c3cnn4CC3CCCN(C(C)=O)C3)cnc2c1` (stereo not drawn) [Example 132, N-(1-((1-acetylpiperidin-3-yl)methyl)-1H-indazol-4-yl)-7-(2-methoxyethoxy)imidazo[1,2-a]pyridine-3-carboxamide], the IC50 on cFMS was found to be 134 nM; on c-KIT it was 604 nM; on PDGFR beta, 170 nM.
As for `Cc1nn(Cc2cc(C)n(C(C)C)n2)c2cccc(NC(=O)c3cnc4cc(OCCN5CCCN(C)CC5)ccn34)c12` [Example 11, N-(1-((1-isopropyl-5-methyl-1H-pyrazol-3-yl)methyl)-3-methyl-1H-indazol-4-yl)-7-(2-(4-methyl-1,4-diazepan-1-yl)ethoxy)imidazo[1,2-a]pyridine-3-carboxamide], the IC50 on cFMS amounted to 26.2 nM; on c-KIT, 157 nM; against PDGFR beta it was 46.5 nM.
Consider `O=C(Nc1cccc2c1cnn2Cc1ccccc1)c1cnc2ccc(C(O)CO)cn12` (stereo not drawn) [Example 158, N-(1-benzyl-1H-indazol-4-yl)-6-(1,2-dihydroxyethyl)imidazo[1,2-a]pyridine-3-carboxamide], for which the IC50 is 535 nM at cFMS, 2100 nM on c-KIT and 2400 nM against PDGFR beta.
For `CN1CCN(CCOc2ccn3c(C(=O)Nc4cccc5c4cnn5Cc4cn(C)cn4)cnc3c2)CC1` [Example 106, N-(1-((1-methyl-1H-imidazol-4-yl)methyl)-1H-indazol-4-yl)-7-(2-(4-methylpiperazin-1-yl)ethoxy)imidazo[1,2-a]pyridine-3-carboxamide dihydrochloride] the same measures were 159 nM, 748 nM and 558 nM.
As to `COCCOc1ccn2c(C(=O)Nc3cccc4c3cnn4Cc3ccc(C(F)(F)F)cc3)cnc2c1` [Example 120, 7-(2-methoxyethoxy)-N-(1-(4-(trifluoromethyl)benzyl)-1H-indazol-4-yl)imidazo[1,2-a]pyridine-3-carboxamide], the IC50 on cFMS is 34.4 nM; at c-KIT it was 14.5 nM; against PDGFR beta, 7.7 nM.
Turning to `CN1CCN(CCOc2ccn3c(C(=O)Nc4cccc5c4cnn5Cc4ccc(C(F)(F)F)cn4)cnc3c2)CC1` [Example 103, 7-(2-(4-Methylpiperazin-1-yl)ethoxy)-N-(1-((5-(trifluoromethyl)pyridin-2-yl)methyl)-1H-indazol-4-yl)imidazo[1,2-a]pyridine-3-carboxamide trihydrochloride], the half-maximal inhibitory concentration (IC50) on cFMS was found to be 7.3 nM; at c-KIT, 7.2 nM; at PDGFR beta, 2.7 nM.
As to `COCCOc1ccn2c(C(=O)Nc3cccc4c3cnn4Cc3ccncc3)cnc2c1` [Example 111, 7-(2-methoxyethoxy)-N-(1-(pyridin-4-ylmethyl)-1H-indazol-4-yl)imidazo[1,2-a]pyridine-3-carboxamide], the concentration for half-maximal inhibition (IC50) was found to be 150 nM at cFMS, 451 nM at c-KIT and 449 nM against PDGFR beta.
For the compound `O=C(Nc1cccc2c1cnn2Cc1ccccc1)c1cnc2cc(-c3cn[nH]c3)ccn12` [Example 145, N-(1-benzyl-1H-indazol-4-yl)-7-(1H-pyrazol-4-yl)imidazo[1,2-a]pyridine-3-carboxamide], the IC50 at cFMS turned out to be 20.5 nM; on c-KIT, 55.9 nM; against PDGFR beta it was 13 nM.
On to `Cc1cccc(Cn2nc(C)c3c(NC(=O)c4cnc5cc(OCCN6CCN(C)CC6)ccn45)cccc32)n1` [Example 89, N-(3-methyl-1-((6-methylpyridin-2-yl)methyl)-1H-indazol-4-yl)-7-(2-(4-methylpiperazin-1-yl)ethoxy)imidazo[1,2-a]pyridine-3-carboxamide tetrahydrochloride], for which the results for the 50% inhibitory concentration (IC50) at cFMS, at c-KIT and against PDGFR beta were 7.3 nM, 1050 nM and 845 nM, respectively.
